The source of these data is ChEMBL document CHEMBL6127073, “Utilizing artificial intelligence for precision exploration of N protein targeting phenanthridine sars-cov-2 inhibitors: A novel approach” (Eur J Med Chem, 2024).

pEC50, pKd: −log10 of the molar value. Active and inactive are the calls of the source. The calls are words filed in the database; no cut-off is given here. Some results are limits rather than exact numbers.

For series [1], the target named is T1, Nucleoprotein (Severe acute respiratory syndrome coronavirus 2, UniProt P0DTC9). Briefly: Binding affinity to SARS-CoV-2 N-pro assessed as dissociation constant by SPR analysis.
The target in series [2] is T1, Nucleoprotein. Briefly: Binding affinity to SARS-CoV-2 N-pro assessed as dissociation constant by MST analysis.
The nature of series [3]: Cytotoxicity against African green monkey Vero E6 cells after 72 hrs by CCK8 assay. The series is classed as toxicity, cell-based, Vero C1008. The settings on record: chlorocebus sabaeus. (Tetrazolium assays rely on reduction of a dye to a coloured formazan, in cell work by metabolically active cells.)
In series [4] the test system is SARS-CoV-2. Briefly: Antiviral activity against SARS-CoV-2 107 infected in African green monkey Vero E6 cells assessed as inhibition of virus induced cytopathic effect by neutral red staining based analysis. Particulars: Severe acute respiratory syndrome coronavirus 2, time 74.0 hrs. It is filed as functional, organism-based.
Series [5] concerns SARS-CoV-2. The series is described as follows: Antiviral activity against SARS-CoV-2 107 infected in African green monkey Vero E6 cells assessed as increase in cell survival rate at 50 uM pre-infected with virus followed by compound addition for 2 hrs and measured after 72 hrs by MTT assay. The series is classed as functional, organism-based. The settings on record: Severe acute respiratory syndrome coronavirus 2, time 74.0 hrs.

Series [6] deals with SARS-CoV-2. The series is described as follows: Antiviral activity against SARS-CoV-2 107 infected in African green monkey Vero E6 cells assessed as inhibition of viral replication pre-infected with virus followed by compound addition and measured after 72 hrs by inverted microscopic analysis. The series is classed as functional, organism-based. Particulars: Severe acute respiratory syndrome coronavirus 2, 107, Vero C1008, 72 h.

Series [7] is described as follows: Selectivity index, ratio of CC50 for cytotoxicity against African green monkey Vero E6 cells to EC50 for antiviral activity against SARS-CoV-2 107 infected in African green monkey Vero E6 cells. It is filed as toxicity, cell-based. The settings on record: read-out: Ratio CC50/EC50.
Series [8] has as its target T1, Nucleoprotein. The series is described as follows: Binding affinity to SARS-CoV-2 N-pro assessed as dissociation constant in presence of ssRNA by MST analysis.
For series [9], the target named is Nucleoprotein (Severe acute respiratory syndrome coronavirus 2) (UniProt P0DTC9). Briefly: Inhibition of ssRNA binding to SARS-CoV-2 N-pro at 100 uM by MST analysis relative to control.
In series [10] the target is T1, Nucleoprotein. The series is described as follows: Binding affinity to wild type SARS-CoV-2 N-pro assessed as dissociation constant by MST analysis.

Usually pKd stands for the negative decadic logarithm of the Kd, by convention in mol/L. With `CCn1c(=O)c2cc(OC)c(OC)cc2c2cccc(/C=N/C3C=CNN3)c21` (stereo unspecified), the pKd in [1] is 5.60. On to `CCn1c(=O)c2cc(OC)c(OC)cc2c2cccc(NS(=O)(=O)c3ccc(Cl)cc3)c21`, for which the pKd in series [1] is 5.28.

As to `CCN1Cc2cc(OC)c(OC)cc2-c2cccc(Nc3ccc4c(c3)oc3ccccc34)c21`, the pKd in series [1] was 4.36. On to `CCn1c(=O)c2cc(OC)c(OC)cc2c2cccc(C3C4=C(CCCC4=O)N(c4ccccc4)C4=C3C(=O)CCC4)c21`, for which, in [1], the negative-log Kd (pKd) is 3.77. One may read the CC50 as the concentration that lowers cell viability or growth by half. Usually pEC50 stands for the EC50 on a negative log10 scale, so that one unit is a factor of ten. Broadly, the inhibition is the relative decrease from the control value, in per cent. With `CCN1Cc2cc(OC)c(OC)cc2-c2cccc(Nc3ncnc4c3nnn4Cc3ccccc3)c21`, the negative logarithm of the Kd (pKd) in series [1] is 6.46; in series [2], 6.14; in [8] it was 4.08; in [10], 5.27. For the same compound, in series [3], the cytotoxic concentration (CC50) at 72 h is above 200 µM. Besides, the outcome in [4] and in series [5] was Active. The pEC50 in series [6] was 4.95. Further, the selectivity ratio in series [7] was above 17.7. Also, the inhibition in [9] turned out to be 100%.

On to `CCN1Cc2cc(OC)c(OC)cc2-c2cccc(NC(=O)Cc3ccccc3)c21`, for which the pKd in [1] was 5.27. The same measure, in the same setting: the same measure for `CCN1Cc2cc(OC)c(OC)cc2-c2cccc(NCc3csc4ccc(Cl)cc34)c21`: 4.01; for `CCN1Cc2cc(OC)c(OC)cc2-c2cccc(NC(=O)c3cc([N+](=O)[O-])cc([N+](=O)[O-])c3)c21`: 4.42. For `CCN1Cc2cc(OC)c(OC)cc2-c2cccc(NC(=O)Nc3cccc4c3N(CC)Cc3cc(OC)c(OC)cc3-4)c21`, in series [1], the pKd is 5.34. The same measure, in the same setting: to `CCN1Cc2cc(OC)c(OC)cc2-c2cccc(NCc3ccc(C4(C(F)(F)F)N=N4)cc3)c21` belongs 4.43; to `CCn1c(=O)c2cc(OC)c(OC)cc2c2cccc(/N=C/c3c4ccccc4cc4ccccc34)c21`, 5.01; to `CCn1c(=O)c2cc(OC)c(OC)cc2c2cccc(/C=N/c3nc[nH]n3)c21`, 4.20.
